Results taken from patent publication EP0123157B1, “Medicaments and/or foodstuff concentrates with an anti-bacterial activity” (EGIS GYOGYSZERGYAR, priority 1983, dated 1984).
≈ marks a conversion by molar mass, not a printed value. Like-named read-outs stand apart in the source and are kept apart here.

Experiments:
Assay in all cases: Minimum inhibitory concentration (MIC) in vitro in broth containing phenol red and glucose
Assay type in all cases: cell-based
Staphylococcus aureus = settings: read-out: Werte der Mindesthemmkonzentration [MIC-Werte]
Excerpt: (§1) Die Mindesthemmkonzentration (MIC-Werte) der Kombination der 3 obigen Wirkstoffe und der einzelnen obigen Wirkstoffe wurden in vitro gegen die Bakterienstämme Escherichia coli 494, Bordatella bronchiseptica, Staphylococcus aureus und Listeria monocytogenes in einer Phenolrot und Glucose enthaltenden Brühe [Hersteller: Firma Difca] bestimmt.

[1] = system: Bordatella bronchiseptica; settings: read-out: Werte der Mindesthemmkonzentration [MIC-Werte]
Excerpt: as §1

[2] = system: Gegen Chloramphenicol resistenter Stamm Escherichia coli 494; settings: single substance; inhibits bacterial growth for 24 hours; chloramphenicol-resistant Escherichia coli 494; read-out: Werte der Mindesthemmkonzentration [MIC-Werte]
Excerpt: as §1

Listeria monocytogenes = settings: read-out: Werte der Mindesthemmkonzentration [MIC-Werte]
Excerpt: as §1

[3] = single substance, inhibits bacterial growth for 24 hours
[4] = single substance, inhibits bacterial growth for 24 hours, Bordatella bronchiseptica

MIC (Staphylococcus aureus; [3]) [µg/mL] | MIC [1, 4] [µg/mL] | MIC [2] [µg/mL] | MIC (Listeria monocytogenes; [3]) [µg/mL] | Structure (SMILES) | MIC (Staphylococcus aureus; 24 h) [µg/mL] | MIC ([1]; 24 h) [µg/mL] | MIC (Listeria monocytogenes; 24 h) [µg/mL]
5 (≈ 21.9 µM) | 5 (≈ 21.9 µM) | 200 (≈ 877 µM) | 5 (≈ 21.9 µM) | Cc1ccc2c(Cl)cc(Cl)c(O)c2n1 [Chlorchinaldol, 2-(Methyl)-5,7-di-(chlor)-8-(hydroxy)-chinolin] |  |  | 
100 (≈ 344 µM) | 50 (≈ 172 µM) | 25 (≈ 86.1 µM) | 50 (≈ 172 µM) | COc1cc(Cc2cnc(N)nc2N)cc(OC)c1OC [Trimethoprim, 2,4-Diamino-5-[3', 4', 5'-tri-(methoxy)-benzyl]-pyrimidin] |  |  | 

Structure (SMILES) | MIC (Staphylococcus aureus; [3]) [µg/mL] | MIC [1, 4] [µg/mL] | MIC [2] [µg/mL] | MIC (Listeria monocytogenes; [3]) [µg/mL] | MIC (Staphylococcus aureus; 24 h) [µg/mL] | MIC ([1]; 24 h) [µg/mL] | MIC (Listeria monocytogenes; 24 h) [µg/mL]
CN(C)CCCN1c2ccccc2Sc2ccc(Cl)cc21 [Chlorpromazin, 2-Chlor-10-[3-(dimethylamino)-propyl]-phenothiazin] |  |  | 50 (≈ 157 µM) |  | 25 (≈ 78.4 µM) | 200 (≈ 627 µM) | 25 (≈ 78.4 µM)
